Reference: PubChem BioAssay (NCI)
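Briefly, cells in 96-well plates were exposed to five compound concentrations for 48 h, and endpoints were estimated by linear interpolation. Here, GI50 denotes the concentration required for 50% inhibition of growth. TGI: concentration producing complete growth inhibition.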

Key:
Assay in all cases: NCI tumour cell line growth inhibition, 48 h
NCI-H23 lung = system: NCI-H23 lung
SF-295 CNS = system: SF-295 CNS
HOP-62 NSCLC = system: HOP-62 NSCLC
NCI-H522 lung = system: NCI-H522 lung
ACHN renal = system: ACHN renal
U251 CNS = system: U251 CNS
CAKI-1 renal = system: CAKI-1 renal
NCI/ADR-RES ovarian = system: NCI/ADR-RES ovarian
BT-549 breast = system: BT-549 breast
MDA-MB-231 breast = system: MDA-MB-231 breast

| SMILES | TGI (NCI-H23 lung) | TGI (SF-295 CNS) | TGI (HOP-62 NSCLC) | TGI (NCI-H522 lung) | TGI (ACHN renal) | TGI (U251 CNS) | TGI (CAKI-1 renal) | GI50 (NCI-H23 lung) | GI50 (SF-295 CNS) | GI50 (HOP-62 NSCLC) | GI50 (CAKI-1 renal) | GI50 (NCI-H522 lung) | GI50 (ACHN renal) | GI50 (U251 CNS) | TGI (NCI/ADR-RES ovarian) | TGI (BT-549 breast) | TGI (MDA-MB-231 breast) | GI50 (NCI/ADR-RES ovarian) | GI50 (MDA-MB-231 breast) | GI50 (BT-549 breast) |
| --- | --- | --- | --- | --- | --- | --- | --- | --- | --- | --- | --- | --- | --- | --- | --- | --- | --- | --- | --- | --- |
| O=C1Nc2ccccc2C1(O)C/C(=N/O)c1ccc2ccccc2c1 (configuration not stated) | > 100 µM | > 100 µM | > 100 µM | > 100 µM | > 100 µM | > 100 µM |  |  |  |  |  |  |  |  |  |  |  |  |  |  |
| CC1=C(C(=O)Nc2ccccc2C)C(c2ccc(Cl)cc2)C(C(=O)Nc2ccccc2C)=C(C)N1 | > 100 µM | > 100 µM | > 100 µM | > 100 µM | > 100 µM | > 100 µM | > 100 µM |  |  |  |  |  |  |  |  |  |  |  |  |  |
| CCc1cccc(C)c1NS(=O)(=O)c1ccccc1 | > 100 µM | > 100 µM | > 100 µM |  | > 100 µM | > 100 µM | > 100 µM |  |  |  |  |  |  |  |  |  |  |  |  |  |
| CC[O-].CC[O-].O=C([CH-]C(=O)c1ccccc1)CCCCCCCCC(=O)[CH-]C(=O)c1ccccc1.[Ti+4] | > 100 µM | > 100 µM | > 100 µM | > 100 µM | > 100 µM | > 100 µM | > 100 µM | 92 µM | 1.52 µM | > 100 µM | > 100 µM | > 100 µM | > 100 µM | > 100 µM |  |  |  |  |  |  |
| O=C1C[C@H]2CCCN2[C@@H](c2ccccc2)C1 | > 100 µM | > 100 µM | > 100 µM | > 100 µM | > 100 µM | > 100 µM | > 100 µM |  |  |  |  |  |  |  |  |  |  |  |  |  |
| Cc1cc2c(C)nn(Cc3ccccc3)c2c(C(=O)O)c1C | > 100 µM | > 100 µM | > 100 µM |  | > 100 µM | > 100 µM |  |  |  |  |  |  |  |  |  |  |  |  |  |  |
| O=c1cc(-c2cccs2)[nH]c2cc3c(cc12)OCO3 | > 100 µM | > 49 µM | 39.4 µM | 6.92 µM | > 100 µM | > 60.2 µM |  |  |  |  |  |  |  |  |  |  |  |  |  |  |
| O=C(/C=C/c1ccccc1)Oc1cccc2cccnc12 | 20 µM | > 100 µM | > 100 µM | 5.31 µM | > 100 µM | 30.8 µM | 83.2 µM |  |  |  |  |  |  |  |  |  |  |  |  |  |
| O=C(O)CCNS(=O)(=O)c1ccc(NC(=O)c2ccccc2)cc1 | > 100 µM | > 100 µM |  | > 100 µM | > 100 µM | > 100 µM | > 100 µM |  |  |  |  |  |  |  |  |  |  |  |  |  |
| CN(C)CCNC(=O)Cn1ccc(=O)c2cc([N+](=O)[O-])ccc21 | > 100 µM | > 100 µM | > 100 µM | > 100 µM | > 100 µM | > 100 µM | > 100 µM |  |  |  |  |  |  |  | > 100 µM |  |  |  |  |  |
| CCc1c(C#N)c(=O)[nH]c(=O)n1CCN1CCN(C(=O)NCCCCCCNC(=O)N2CCN(CCn3c(CC)c(C#N)c(=O)[nH]c3=O)CC2)CC1 |  | > 100 µM | > 100 µM |  | > 100 µM | > 100 µM | > 100 µM |  |  |  |  |  |  |  |  |  |  |  |  |  |
| C[C@@H](NC(C#N)c1ccco1)c1ccccc1 (some centres not stated) | > 100 µM | > 100 µM | > 100 µM |  | > 100 µM | > 100 µM |  |  |  |  |  |  |  |  | > 100 µM | > 100 µM |  |  |  |  |
| O=C(NCCCOC(=O)CCCCCCCCC(=O)OCCCNC(=O)NC(=O)c1c[nH]c(=O)[nH]c1=O)NC(=O)c1c[nH]c(=O)[nH]c1=O | > 100 µM | > 100 µM | > 100 µM |  | > 100 µM | > 100 µM | > 100 µM |  |  |  |  |  |  |  |  |  |  |  |  |  |
| Nc1ncnc2c1ncn2C1OC(CSCC(F)(F)F)C(O)C1O (configuration not stated) | > 100 µM | > 100 µM | > 100 µM | > 100 µM | > 100 µM | > 100 µM | > 100 µM |  |  |  |  |  |  |  |  |  |  |  |  |  |
| CCSCCCSCCSCC | > 100 µM | > 100 µM | > 100 µM | > 100 µM |  | > 100 µM |  |  |  |  |  |  |  |  |  | > 100 µM | > 100 µM |  |  |  |
| CN1N=CSC12C(=O)N(c1ccccc1)C(=O)N2c1ccccc1 (configuration not stated) | > 100 µM | > 100 µM | > 100 µM |  | > 100 µM | > 100 µM | > 100 µM |  |  |  |  |  |  |  |  |  |  |  |  |  |
| Cc1nc(C(N)=O)c(N)n1CCN1CCN(C(=O)CCCCCCCCCCNC2N=CNc3nc[nH]c32)CC1 (configuration not stated) | > 100 µM | > 100 µM | > 100 µM |  | > 100 µM | > 100 µM |  |  |  |  |  |  |  |  |  |  |  |  |  |  |
| CC1=C2C(=C[C@@](C)(CO)[C@@H]2OC(=O)N(C)CCN(C)C(=O)OC(C)(C)C)C(=O)[C@](C)(O)C12CC2 | 15.9 µM | 33.1 µM |  | 25.2 µM | 32.6 µM | 46.1 µM |  | 2.08 µM | 1.8 µM |  |  | 6.27 µM | 2.6 µM | 5.25 µM | 23.7 µM | 20.6 µM | 39.3 µM | 3.05 µM | 9.64 µM | 6.61 µM |
| O=C(N/N=C/c1ccccc1O)N/N=C/c1ccccc1O | > 100 µM | > 100 µM | > 100 µM | > 100 µM | > 100 µM | > 100 µM |  |  |  |  |  |  |  |  |  |  |  |  |  |  |
| N#CC(N)=Nc1ccccc1 | > 100 µM | > 100 µM | > 100 µM | > 100 µM | > 100 µM | > 100 µM | > 100 µM |  |  |  |  |  |  |  |  |  |  |  |  |  |
| COC(=O)C1=CO[C@@H](OC2CC(CO)C(O)C(O)C2O)[C@@H]2[C@@H](C)[C@@H](OC(=O)/C=C/c3ccccc3)[C@@H](O)[C@H]12 (some centres not stated) (tested in a mixture with another compound) | > 100 µM | > 100 µM | > 100 µM | > 100 µM | > 100 µM | > 100 µM | > 100 µM |  |  |  |  |  |  |  |  |  |  |  |  |  |
| O=C1CC(CC(=O)C2CCCCC2=O)C(=O)N1 (configuration not stated) | > 100 µM | > 100 µM | > 100 µM | > 100 µM | > 100 µM | > 100 µM | > 100 µM |  |  |  |  |  |  |  |  |  |  |  |  |  |
| Oc1cccc(Nc2nc3ccccc3c3occc23)c1 |  | 11.7 µM | 33.5 µM | 28.8 µM | 21.4 µM | 27.2 µM | 6.65 µM |  | 2.34 µM | 15.1 µM | 2.04 µM | 14.5 µM | 7.69 µM | 14 µM | 23.4 µM | 27.2 µM | 27 µM | 11.3 µM | 11.5 µM | 14.2 µM |
| CC(=O)c1c(O)c(C)c(O)c(Cc2c(O)c3c(c(C(=O)/C=C/c4ccccc4)c2O)OC(C)(C)C=C3)c1O | 14 µM | 11.6 µM |  | 11.5 µM | 34.3 µM | 14.5 µM | 9.07 µM |  |  |  |  |  |  |  | 15.8 µM | 8.77 µM | 6.86 µM |  |  |  |
| COC(=O)/C(=N\NC(C)(C)C)C(C(=O)OC)C(=O)C(=O)Nc1cc(Cl)ccc1Cl (configuration not stated) | > 100 µM | > 100 µM | > 100 µM | > 100 µM | > 100 µM | > 100 µM | > 100 µM |  |  |  |  |  |  |  |  |  |  |  |  |  |
